Data reported in patent US20090155903A1, “PHARMACEUTICAL COMPOSITION AND METHOD” (Myriad Genetics, Incorporated, priority 2004, published 2009).

Key:
COX1 = target: T1, COX1 (Ovis aries, UniProt P05979); test: COX inhibitor screening kit (Cayman Chemical), COX1; type: biochemical; details: 100 μM compound
T1 construct: purchased Cayman Chemical, Ann Arbor, Mich; 560131
T1 sequence (P05979 25-600): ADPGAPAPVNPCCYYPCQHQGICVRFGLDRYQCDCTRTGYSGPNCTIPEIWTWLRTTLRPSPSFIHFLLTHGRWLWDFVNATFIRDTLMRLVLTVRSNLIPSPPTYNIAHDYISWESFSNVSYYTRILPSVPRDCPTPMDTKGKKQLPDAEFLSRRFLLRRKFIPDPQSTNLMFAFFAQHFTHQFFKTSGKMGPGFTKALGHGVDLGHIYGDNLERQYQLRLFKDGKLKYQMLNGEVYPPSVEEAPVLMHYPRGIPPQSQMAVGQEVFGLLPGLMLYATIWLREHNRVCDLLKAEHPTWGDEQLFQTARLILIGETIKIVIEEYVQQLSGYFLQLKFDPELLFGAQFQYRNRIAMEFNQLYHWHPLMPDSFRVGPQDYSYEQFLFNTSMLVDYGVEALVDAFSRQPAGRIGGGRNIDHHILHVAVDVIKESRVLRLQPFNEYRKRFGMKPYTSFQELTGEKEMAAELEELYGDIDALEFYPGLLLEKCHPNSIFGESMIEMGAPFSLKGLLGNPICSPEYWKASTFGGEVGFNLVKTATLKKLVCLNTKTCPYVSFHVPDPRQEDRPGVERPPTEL
Procedure: (§1) The invention is based on the fact that the inventors have discovered that compounds of the formulae above lower Aβ42 Levels in in vitro APP processing assays. Furthermore, the compounds, in general, have negligible levels of COX inhibition and therefore are thought to essentially be devoid of the deleterious side-effects associated with COX inhibition. […] Preferred compounds of the formulae for use in the invention are those that have little or negligible COX1 and/or COX2 inhibition at 1 μM, more preferred are those that little or negligible COX1 and/or COX2 inhibition at 10 μM, and more preferred are those that little or negligible COX1 and/or COX2 inhibition at 100 μM compound. COX1 and COX2 inhibition can be determined with a COX inhibitor screening kit from e.g., Cayman Chemical, Ann Arbor, Mich. (Cat. #560131).
(§2) The invention is related to the inventors' discovery that compounds of Formula I-Va lower Aβ42 levels in APP processing assays. Furthermore, compounds of Formula I-Va, in general, have negligible levels of COX inhibition and therefore are thought to essentially be devoid of the deleterious side-effects associated with COX inhibition. […] Preferred compounds of Formula I-Va for use in the invention are those that have little or negligible COX1 and/or COX2 inhibition at 1 μM, more preferred are those that have little or negligible COX1 and/or COX2 inhibition at 10 μM, and more preferred are those that have little or negligible COX1 and/or COX2 inhibition at 100 μM compound. COX1 and COX2 inhibition can be determined with a COX inhibitor screening kit from e.g., Cayman Chemical, Ann Arbor, Mich. (Cat. #560131). […] Representative compounds found to lower Aβ42 levels using the previously described assay by at least 50% of DMSO control at concentrations ranging from 30-80 μM include compounds 1, 11, 21, 22, 24, 25, 26, 38, 43, 64, 67, 98, 100, and 102. Particularly preferred compounds of Formula I-Va for use in the methods and embodiments of the invention include those in Tables 2-7 below.

COX2 = target: T2, COX2 (Homo sapiens, UniProt P35354); test: COX inhibitor screening kit (Cayman Chemical), COX2; type: biochemical; details: 100 μM compound
T2 construct: purchased Cayman Chemical, Ann Arbor, Mich; 560131
T2 sequence (P35354 18-604): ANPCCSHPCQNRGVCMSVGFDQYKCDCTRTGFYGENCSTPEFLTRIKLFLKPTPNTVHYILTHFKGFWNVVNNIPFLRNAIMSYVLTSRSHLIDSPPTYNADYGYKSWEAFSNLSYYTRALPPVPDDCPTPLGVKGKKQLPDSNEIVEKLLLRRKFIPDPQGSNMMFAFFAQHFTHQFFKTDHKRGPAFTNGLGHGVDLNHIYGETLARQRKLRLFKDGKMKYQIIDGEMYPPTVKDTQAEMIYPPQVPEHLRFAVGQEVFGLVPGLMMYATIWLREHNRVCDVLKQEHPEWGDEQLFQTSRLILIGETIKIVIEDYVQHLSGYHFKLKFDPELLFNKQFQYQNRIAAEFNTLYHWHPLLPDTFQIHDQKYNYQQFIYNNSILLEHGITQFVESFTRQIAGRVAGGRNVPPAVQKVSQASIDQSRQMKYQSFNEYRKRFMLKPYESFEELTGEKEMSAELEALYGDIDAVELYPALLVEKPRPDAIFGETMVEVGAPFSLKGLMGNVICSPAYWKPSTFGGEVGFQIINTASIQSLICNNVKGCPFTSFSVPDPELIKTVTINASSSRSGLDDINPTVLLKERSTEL
Procedure: as §1, §2

[1] = clinical trials; rofecoxib at 25 mg daily; cited from earlier work
[2] = patients with mild cognitive impairment; 4.5% for placebo; cited from earlier work

inhibition of COX1 (COX1)	inhibition of COX2 (COX2)	Compound	efficacy for treating AD [1]	patients who developed AD [2]
not significantly inhibit	not significantly inhibit	O=C(O)c1cc([N+](=O)[O-])ccc1NCc1ccc(Cl)c(Cl)c1 [Compound 40, 2-(3,4-dichlorobenzylamino)-5-nitrobenzoic acid]	–	–
not significantly inhibit	not significantly inhibit	O=C(O)c1cc([N+](=O)[O-])ccc1NCc1cccc(Cl)c1 [Compound 43, 2-(3-chlorobenzylamino)-5-nitrobenzoic acid]	–	–
not significantly inhibit	not significantly inhibit	COc1ccc(-c2cccc(CC(=O)O)c2)cc1 [Compound 72, (4′-Methoxy-biphenyl-3-yl)-acetic acid]	–	–
not significantly inhibit	not significantly inhibit	O=C(O)c1cc2cc(OCc3ccccc3)ccc2n1Cc1ccc(C(F)(F)F)cc1 [Compound 97, 5-benzyloxy-1-(4-trifluoromethylbenzyl)-1H-indole-2-carboxylic acid]	–	–

The next lines start with the compound.

Compound	inhibition of COX1 (COX1)	inhibition of COX2 (COX2)	efficacy for treating AD [1]	patients who developed AD [2]
Cc1c(CC(=O)O)c2ccccc2n1C(=O)c1ccc(OC(F)(F)F)cc1 [Compound 10, 1-(4-trifluoromethoxybenzoyl)-2-methylindole-3-acetic acid]	not significantly inhibit	not significantly inhibit	–	–
Cc1c(CC(=O)O)c2ccccc2n1Cc1ccc(Br)cc1 [Compound 19, 1-(4-bromobenzyl)-2-methylindole-3-acetic acid]	not significantly inhibit	not significantly inhibit	–	–
COc1ccc2cc([C@H](C)C(=O)O)ccc2c1 [Naproxen]	–	–	failed to show efficacy	–
CS(=O)(=O)c1ccc(C2=C(c3ccccc3)C(=O)OC2)cc1 [rofecoxib]	–	–	failed to show efficacy	6.4%
